Test results published in patent US9327038B2, “Stable activatable particles as radiotherapeutic agents for the treatment of disease” (The University of North Carolina at Chapel Hill, priority 2011, dated 2016).

Columns and labels:
[1] = test system: SKOV-3 human ovarian tumor cells; details: mouse, in vivo, ip
Method: SKOV-3 ovarian tumor mice were prepared by injecting approximately 7×10^6 SKOV-3 human ovarian tumor cells into the peritoneal cavity of athymic (nu/nu) mice. Following a two-month incubation period, magnetic resonance imaging (MRI) was used to visualize the resultant tumors.
Biodistribution studies were performed 24 hours after injection by removing various organs from the mice and quantifying the ^166Ho content of each organ using a 2470 Wizard Automatic Gamma Counter (PerkinElmer Inc., Waltham, Mass.).

[2] = test system: NSCLC A549-luc-c8 cells; assay: Biodistribution after intravenous injection in NSCLC A549-luciferase tumor-bearing mice; format: in vivo, athymic (nu/nu) mice; details: one week after i.v. injection, 300 μCi (Example 14 particles)
Method: NSCLC A549-luciferase tumor-bearing mice were prepared by injecting approximately one million NSCLC A549-luc-c8 cells into the lung parenchyma of athymic (nu/nu) mice. Implantation and tumor progression were monitored by detecting luciferase bioluminescence following luciferin injections. FIG. 15A.

[3] = test system: SKOV-3 human ovarian tumor cells; assay: Survival of SKOV-3 ovarian tumor mice after intraperitoneal treatment; format: in vivo, athymic (nu/nu) mice; details: 73-day period following implantation; i.p. injection twenty days after implantation (108.7 μCi for ^166Ho groups)
Method: An additional 14 SKOV-3 ovarian tumor mice received no treatment and served as the control group.
Statistical analyses were performed to compare the fraction of mice that survived over the course of the 73-day period following implantation. […] FIG. 6.

CC(=O)C=C(C)[O][166Ho]([O]C(C)=CC(C)=O)[O]C(C)=CC(C)=O [^166Ho(AcAc)3]
^166Ho in tumors, percent initial dose per gram [1]: 15.4±2.7 % ID/g
^166Ho in tumors, percent initial dose per gram [2]: not retained
surviving animals [3]: 66.7%
